Assay [1] deals with G-protein coupled muscarinic acetylcholine receptors. Description: Acetylcholine challenge of HEK 293 cells co-transfected with TetO-G-CaMP2 and CMV-VP22-tTA, G-CaMP2 fluorescence. The format is cell-based, human. To be noted: 10 μM acetylcholine, HEK 293 TetO-G-CaMP2 + CMV-VP22-tTA, excited at 488 nm. As to the method: Cells co-transfected with the two plasmids show fluorescence, while cells with only one of the plasmids, or neither, are not fluorescent (Control, FIG. 1A). The addition of 10 μM acetylcholine (ACH) induces a subpopulation of cells to respond with increases in fluorescence (FIG. 1B). Acetylcholine activates G-protein coupled muscarinic acetylcholine receptors and mobilizes intracellular calcium. Arrows point to three of the responsive cells (a, b, and c of both FIGS. 1A and 1B).
(AFU: artificial fluorescence unit).
Human embryonic kidney cells (HEK 293) were co-transfected with TetO-G-CaMP2 and a construct containing a tetracycline transactivator protein under the control of a ubiquitous promoter (CMV-VP22-tTA). […] The change in fluorescence indicated proper function of the G-CaMP2 sensor combined with the tetracycline inducible system.

The subject of assay [2] is glomeruli / sensory neurons of the olfactory bulb. Description: Odor stimulation of OMP-tTA-G-CaMP2 compound transgenic mice, fluorescence imaging of olfactory bulb. The format is in vivo, mouse. To be noted: for subset of sensory neurons / glomeruli activated by odor: different odors alone or combined, FIGS. 9 and 12; for activation of G-CaMP2 fluorescence in glomeruli by odor: odor delivered to the nose, thinned skull, FIG. 5; for course of G-CaMP2 intensity as the activation sequence progressed: FIGS. 10E and 11E; for sequence of glomeruli activation over length of odor exposure: FIGS. 10 and 11. As for the experimental part:
The compound transgenic mice (“transgenic mice”) containing the G-CaMP2 indicator targeted to the olfactory neurons may be used to evaluate neuron stimulation and map the signals sent in the brain. The response of sensory neurons was analyzed by stimulating transgenic mice with odor of varying concentrations. After anesthetizing mice with an injection of ketamine, the skin over the olfactory bulb was removed and the underlying skull covering the olfactory bulb was surgically thinned. The mice were then secured on an imaging plate and placed underneath a fluorescent microscope for imaging analysis. Background fluorescence was detected before odor stimulation (FIG. 5A). […] Amyl Acetate of various concentrations was also delivered to the nose of the animals using a custom made olfactometer. […] Odor delivery excited the sensory neurons, which generated action potentials that reached both olfactory bulbs.
The concentration of odor presented also activated glomeruli in a dose dependent manner (FIGS. 12C and 12D).
Animals are anesthetized with Ketamin/Xylazine cocktail and the righting reflex of the hind limbs are tested prior to surgery. Once deeply anesthetized, the hair over the head is shaved with a razor blade and a midline incision is made in the skin covering the skull to expose the olfactory bulb. For direct imaging, a head holder is glued to the bone and the animal is mounted to the microscope stage with the olfactory bulb region positioned right under the lens. (FIGS. 9 and 10). For bone thinning imaging, micro dental tools wet with saline are used to scrape the surface of the bone covering the olfactory bulb. Occasional air puffs are used to cool the thinning surface to prevent heat damage of the brain tissue. We normally stop when the bone can be indented by the gentle tough of a forceps tip, which is about 50 μm thick. The surface is then gently cleaned with saline and the head holder is attached for mounting the animal to the microscope.

SMILES strings stand for the structures.

On to `CC(=O)OCC[N+](C)(C)C` [acetylcholine], for which the “increase in fluorescence, cell A” value in assay [1] (FIG. 2A) is “approximately 90 AFU”. Moreover, in assay [1] (FIG. 2B), the “increase in fluorescence, cell B” value is recorded as “approximately 95 AFU”. The “increase in fluorescence, cell C” value in assay [1] (FIG. 2C) is “approximately 50 AFU”.
In the case of `CCCCCOC(C)=O` [amyl acetate], in assay [2], the “subset of sensory neurons / glomeruli activated by odor” value is reported as “activated different neurons” and the “activation of G-CaMP2 fluorescence in glomeruli by odor” value is “several glomeruli activating G-CaMP2 fluorescence”. The “response of right and left olfactory bulbs to various odor concentrations” value in assay [2] (various concentrations, olfactometer, FIG. 6) was “both the right and left olfactory bulbs were similarly stimulated”.
As for `CCCC=O` [butyraldehyde], in assay [2], the “course of G-CaMP2 intensity as the activation sequence progressed” value is listed as “continued to increase”, the “sequence of glomeruli activation over length of odor exposure” value was “sequentially activated glomeruli” and the “subset of sensory neurons / glomeruli activated by odor” value is reported as “activated”.
In the case of `CCCCCC(=O)O` [hexanoic acid], the “subset of sensory neurons / glomeruli activated by odor” value in assay [2] is “activated”.
As for `CCCCCCCC=O` [octanal], in assay [2], the “course of G-CaMP2 intensity as the activation sequence progressed” value is reported as “decrease in G-CaMP2 expression”, the “sequence of glomeruli activation over length of odor exposure” value is given as “activated several different glomeruli sequentially” and the “activation of G-CaMP2 fluorescence in glomeruli by odor” value is “response of several glomeruli to activate G-CaMP2 fluorescence”.

The values are drawn from patent US9018440B2, “Fluorescent mouse model” (Stowers Institute for Medical Research, priority 2006, dated 2015).
